Source: ChEMBL document CHEMBL1131034, “Synthesis and pharmacological characterization of novel 6-fluorochroman derivatives as potential 5-HT1A receptor antagonists” (J Med Chem, 1998)

Assays:
[1] = target: Serotonin 1a (5-HT1a) receptor/Adrenergic receptor alpha-1 (Rattus norvegicus) (UniProt P15823+P23944+P43140+P19327); assay: Selectivity for 5-HT1A receptor of rat hippocampus and alpha-1 adrenergic receptor of rat cortex.; type: tissue-based
D(2) dopamine receptor = D(2) dopamine receptor (Rattus norvegicus, UniProt P61169); assay: Binding affinity against dopamine receptor D2 on rat striatum using [3H]spiperone as radioligand.; type: tissue-based
Chain of D(2) dopamine receptor (P61169 whole entry): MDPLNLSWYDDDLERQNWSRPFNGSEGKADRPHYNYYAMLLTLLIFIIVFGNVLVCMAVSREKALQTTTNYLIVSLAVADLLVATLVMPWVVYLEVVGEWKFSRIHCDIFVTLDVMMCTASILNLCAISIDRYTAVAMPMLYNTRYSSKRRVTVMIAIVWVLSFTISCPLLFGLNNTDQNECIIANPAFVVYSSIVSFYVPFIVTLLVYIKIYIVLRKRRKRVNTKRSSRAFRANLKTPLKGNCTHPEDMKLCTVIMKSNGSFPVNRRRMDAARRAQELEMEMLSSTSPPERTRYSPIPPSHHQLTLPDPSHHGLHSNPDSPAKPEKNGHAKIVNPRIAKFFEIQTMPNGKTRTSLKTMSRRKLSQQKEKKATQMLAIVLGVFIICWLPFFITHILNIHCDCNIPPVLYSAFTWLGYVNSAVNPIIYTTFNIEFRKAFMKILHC

[2] = target: T1, Adrenergic receptor alpha-1 (Rattus norvegicus, UniProt P15823+P23944+P43140); assay: Binding affinity against alpha-1 adrenergic receptor on rat cortex using [3H]-prazosin as radioligand.; type: tissue-based, Brain
T1 sequence (P15823 whole entry): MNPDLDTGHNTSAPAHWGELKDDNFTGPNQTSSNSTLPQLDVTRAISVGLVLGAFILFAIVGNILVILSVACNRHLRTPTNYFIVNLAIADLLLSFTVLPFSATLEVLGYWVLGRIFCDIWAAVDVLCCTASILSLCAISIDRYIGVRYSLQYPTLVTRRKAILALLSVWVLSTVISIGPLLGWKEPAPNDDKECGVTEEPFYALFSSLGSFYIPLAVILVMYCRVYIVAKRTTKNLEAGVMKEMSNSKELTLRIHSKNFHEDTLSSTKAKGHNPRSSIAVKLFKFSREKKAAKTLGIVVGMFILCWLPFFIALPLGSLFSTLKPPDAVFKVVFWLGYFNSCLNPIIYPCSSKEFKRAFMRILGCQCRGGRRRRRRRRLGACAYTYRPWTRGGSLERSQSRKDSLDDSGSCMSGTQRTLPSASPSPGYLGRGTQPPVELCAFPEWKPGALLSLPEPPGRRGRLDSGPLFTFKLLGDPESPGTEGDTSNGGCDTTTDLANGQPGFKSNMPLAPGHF
T1 sequence (P23944 whole entry): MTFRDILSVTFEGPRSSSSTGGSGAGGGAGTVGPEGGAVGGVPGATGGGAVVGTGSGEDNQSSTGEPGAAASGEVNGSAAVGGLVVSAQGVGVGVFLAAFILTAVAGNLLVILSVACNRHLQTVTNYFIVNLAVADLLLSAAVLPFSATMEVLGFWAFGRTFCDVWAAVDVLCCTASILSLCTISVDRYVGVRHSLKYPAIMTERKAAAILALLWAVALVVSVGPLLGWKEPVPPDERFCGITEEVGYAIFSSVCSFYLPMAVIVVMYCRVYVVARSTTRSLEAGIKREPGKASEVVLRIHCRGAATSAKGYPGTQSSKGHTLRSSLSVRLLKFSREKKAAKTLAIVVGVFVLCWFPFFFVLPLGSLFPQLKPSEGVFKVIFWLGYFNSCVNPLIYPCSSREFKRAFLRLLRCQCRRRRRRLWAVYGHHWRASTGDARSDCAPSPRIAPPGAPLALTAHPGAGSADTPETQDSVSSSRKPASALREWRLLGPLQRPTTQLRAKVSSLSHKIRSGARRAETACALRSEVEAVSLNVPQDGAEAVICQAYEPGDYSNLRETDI
T1 sequence (P43140 whole entry): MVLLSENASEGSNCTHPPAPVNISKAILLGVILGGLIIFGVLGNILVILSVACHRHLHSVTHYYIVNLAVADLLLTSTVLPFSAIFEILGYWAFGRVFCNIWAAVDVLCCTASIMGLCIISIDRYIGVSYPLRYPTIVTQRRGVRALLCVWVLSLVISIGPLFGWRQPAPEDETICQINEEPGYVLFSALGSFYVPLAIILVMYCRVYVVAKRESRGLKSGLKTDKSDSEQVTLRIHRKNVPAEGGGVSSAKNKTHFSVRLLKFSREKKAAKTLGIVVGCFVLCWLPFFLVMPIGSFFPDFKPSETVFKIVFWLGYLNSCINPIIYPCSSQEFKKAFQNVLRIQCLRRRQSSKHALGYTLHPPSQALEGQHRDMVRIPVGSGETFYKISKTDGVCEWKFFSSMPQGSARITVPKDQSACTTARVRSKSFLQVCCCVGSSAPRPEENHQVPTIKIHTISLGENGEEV

[3] = target: T2, 5-hydroxytryptamine receptor 1A (Homo sapiens) (UniProt P08908); assay: Antagonist activity against CHO cells expressing the human 5-hydroxytryptamine 1A receptor in a forskolin stimulated adenylate cyclase (FSC) assay.; type: functional, cell-based
T2 sequence (whole entry): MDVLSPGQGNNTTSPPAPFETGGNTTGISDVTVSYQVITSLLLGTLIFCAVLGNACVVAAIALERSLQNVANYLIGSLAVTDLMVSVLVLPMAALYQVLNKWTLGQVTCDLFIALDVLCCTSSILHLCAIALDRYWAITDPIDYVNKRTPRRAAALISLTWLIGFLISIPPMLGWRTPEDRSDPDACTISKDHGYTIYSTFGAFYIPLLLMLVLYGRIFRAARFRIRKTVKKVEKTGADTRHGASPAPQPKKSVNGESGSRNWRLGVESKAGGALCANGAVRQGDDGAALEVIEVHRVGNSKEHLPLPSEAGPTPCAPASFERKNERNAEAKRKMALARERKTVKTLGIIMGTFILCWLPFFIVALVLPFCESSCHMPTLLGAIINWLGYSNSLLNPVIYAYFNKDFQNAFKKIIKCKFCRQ

[4] = Binding affinity (Ki) ratio of D2 receptor of rat striatum and 5-HT1A receptor of rat hippocampus.; type: tissue-based
[5] = target: T3, 5-hydroxytryptamine receptor 1A (Rattus norvegicus, UniProt P19327); assay: Binding affinity against 5-hydroxytryptamine 1A receptor on rat hippocampus using [3H]8-OH-DPAT as radioligand.; type: tissue-based
T3 sequence (P19327 whole entry): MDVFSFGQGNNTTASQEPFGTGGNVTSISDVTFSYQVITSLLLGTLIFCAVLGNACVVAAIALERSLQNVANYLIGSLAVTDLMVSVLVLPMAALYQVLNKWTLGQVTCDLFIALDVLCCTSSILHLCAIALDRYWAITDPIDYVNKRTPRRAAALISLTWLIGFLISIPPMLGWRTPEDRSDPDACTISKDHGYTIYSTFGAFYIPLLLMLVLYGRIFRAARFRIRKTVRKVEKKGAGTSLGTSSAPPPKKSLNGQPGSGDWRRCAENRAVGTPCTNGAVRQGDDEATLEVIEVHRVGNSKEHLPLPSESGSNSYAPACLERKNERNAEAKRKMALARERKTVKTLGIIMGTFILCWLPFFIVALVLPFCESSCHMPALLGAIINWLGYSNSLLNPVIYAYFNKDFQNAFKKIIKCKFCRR

Structure (SMILES) | Selectivity [1] | Ki (D(2) dopamine receptor) [nM] | Ki [2] [nM] | FSC recovery [3] [%] | Ratio [4] | Ki [5] [nM]
O=C1CCOc2c(OCCNCCCCc3ccc(Cl)cc3)cc(F)cc21 | 5.2 | 32.3 | 98.9 | 30 | 1.7 | 19
COc1ccccc1CCCCNCCOc1cc(F)cc2c1OCCC2=O | 3.2 | 23.7 | 75.6 | 44 | 0.99 | 24
CCOc1ccc(CCCCNCCOc2cc(F)cc3c2OCCC3=O)cc1 | 37 | 55.1 | 663 | 52 | 3.1 | 18
COc1ccc(CCCCCNCCOc2cc(F)cc3c2OC(C)CC3)cc1 (stereo unspecified) | 2.6 | 3.02 | 19.1 | 59 | 0.41 | 7.33
CCCN(CCCCc1ccc2c(c1)OCO2)CCOc1cc(F)cc2c1OCCC2=O | 11 | 1540 | 734 | 6 | 22 | 69
COc1ccc(CCCCNCCOc2cc(F)cc3c2OCCC3O)cc1 (stereo in doubt; (-)-34) [listing 1 of 2 here] | – | 4.11 | 5.86 | – | – | 0.31
COc1ccc(CCCCNCCOc2cc(F)cc3c2OCCC3OC)cc1 (stereo unspecified) | 9.6 | 9.07 | 175 | 111 | 0.5 | 18.3
COc1ccc(CCCCNCCOc2cc(F)cc3c2OCC/C3=N/O)cc1 | 7.5 | 11.7 | 207 | 83 | 0.42 | 27.7
COc1ccc(CCCCNCCOc2cc(F)cc3c2OCCC3=O)c2ccccc12 | 0.29 | 153 | 198 | -15 | 0.23 | 680
COc1ccc(CCCCNCCOc2cc(F)cc3c2OCCC3O)cc1 (stereo in doubt; 34) | 15 | – | – | 108 | 1 | –
COc1ccc(CCCNCCOc2cc(F)cc3c2OC(C)CC3)cc1 (stereo unspecified) | 2.1 | 4.98 | 19.9 | 40 | 0.52 | 9.53
COc1ccc(CCCCNCCOc2cc(F)cc3c2OCCC3O)cc1 (single isomer, unassigned; (+)) [listing 2 of 2 here] | – | 0.482 | 73.3 | – | – | 2.1
CN(C)c1ccc(CCCCNCCOc2cc(F)cc3c2OCCC3=O)cc1 | 20 | 34.6 | 574 | 37 | 1.2 | 28.3

More lines, now with the values ahead:

Selectivity [1] | Ki (D(2) dopamine receptor) [nM] | Ki [2] [nM] | FSC recovery [3] [%] | Ratio [4] | Ki [5] [nM] | Structure (SMILES)
2.2 | 43.9 | 91.5 | 16 | 1.1 | 41.8 | O=C1CCOc2c(OCCNCCCCc3ccccc3)cc(F)cc21
13 | – | 258 | 3 | – | 19.3 | O=C1CCOc2c(OCCNCCCCc3ccc([N+](=O)[O-])cc3)cc(F)cc21
15 | 0.312 | 4.07 | 53 | 1.2 | 0.27 | COc1ccc(CCCCNCCOc2cc(F)cc3c2OC(C)CC3)cc1 (stereo unspecified)
5.7 | 111 | 249 | 3 | 2.6 | 43.4 | COc1cccc(CCCCNCCOc2cc(F)cc3c2OCCC3=O)c1
32 | 70.4 | 355 | 17 | 6.4 | 11 | N#Cc1ccc(CCCCNCCOc2cc(F)cc3c2OCCC3=O)cc1
8.2 | 0.149 | 3.57 | 44 | 0.34 | 0.435 | COc1ccc(CCCCNCCOc2cc(F)cc3c2OC(C)(C)CC3)cc1
78 | 38 | 317 | 9 | 9.4 | 4.04 | COc1ccc(CCNCCOc2cc(F)cc3c2OCCC3=O)cc1
35 | – | – | 109 | 0.23 | – | COc1ccc(CCCCNCCOc2cc(F)cc3c2OCCC3O)cc1 (single isomer, unassigned; (+)) [listing 1 of 2 here]
5.8 | 2.99 | 13.5 | 68 | 1.3 | 2.34 | COc1ccc(CCNCCOc2cc(F)cc3c2OCCC3O)cc1 (stereo unspecified)
2 | – | 152 | 17 | – | 77 | COc1ccc(CCCCNCCOc2cc(F)cc3c2OCCC3=O)c(C)c1C
17 | 38.8 | 315 | 49 | 2.1 | 18.4 | CSc1ccc(CCCCNCCOc2cc(F)cc3c2OCCC3=O)cc1
3.4 | 2.31 | 30.8 | 76 | 0.26 | 8.99 | COc1ccc(CCCCCCNCCOc2cc(F)cc3c2OC(C)CC3)cc1 (stereo unspecified)
2.2 | 23.3 | 120 | 26 | 0.42 | 55.8 | O=C1CCOc2c(OCCNCCCCc3ccc(O)cc3)cc(F)cc21
26 | – | 1350 | 10 | – | 52.7 | COc1ccc(CCCCN(C)CCOc2cc(F)cc3c2OCCC3=O)cc1
18 | – | 856 | 33 | – | 48.8 | CCCOc1ccc(CCCCNCCOc2cc(F)cc3c2OCCC3=O)cc1
19 | – | – | 111 | 13 | – | COc1ccc(CCCCNCCOc2cc(F)cc3c2OCCC3O)cc1 (stereo in doubt; (-)-34) [listing 2 of 2 here]
